Experiment: Strength and degradation profile of tigecycline 20 mg/mL bulk solutions by reversed phase HPLC (effect of temperature, time, pH, dissolved oxygen; Runs A to O)
Format: physicochemical
Conditions: 20 mg/mL
Protocol: The contents of the sample vials are dissolved in diluent. The sample solution is diluted, if necessary, and chromatographed on a reversed phase column using gradient elution. Impurities are determined by comparing the impurity peak areas in the sample preparation chromatogram to the average area of tigecycline peaks in the standard preparation chromatograms obtained concomitantly.
Chromatographic Column—Length about 15 cm, inside diameter about 4.6 mm, packed with Inertsil ODS2, 5 μm size particles or equivalent.
Detector—Ultraviolet spectrophotometric detector capable of operating at 248 nm with a sensitivity of about 0.5 absorbance units full scale.
The results of additional studies to investigate the effect of processing parameters such as temperature, time, and dissolved oxygen content on the purity profile of tigecycline solutions using the following materials, methods and procedures are presented in Tables A to O.
The experiments were run in plastic glove bags under normal laboratory light conditions. Plastic glove boxes will be used to control the headspace of the beakers. The batch size was 200 mL. • 1. Prepare the glove bag with a mixture of nitrogen and air to achieve an oxygen level in the solution as per the design. • 2. Place the jacketed beaker on the magnetic stirrer. Connect it to the cooler. Set the cooler to the desired set point. • 3. Add 200 mL of SWFI in to the beaker. Allow equilibrating. Measure the temperature and oxygen content. When it reaches the desired condition, add accurately weighed API and mix until dissolved. If necessary use spatula to aid dissolution. For pH adjustments, use 4 mL of either 0.1N NaOH or 0.1N HCl and 196 mL of WFI for manufacture. • 4. After complete dissolution, Transfer about 5.5 mL of Solution in vials and stopper them. These vials will be stoppered at the appropriate headspace conditions. Place the vials in appropriate temperature conditions. • 5. Sample the vials at 1, 4, 8, 10, 12 and 24 hours. Send the samples for analysis. Freeze the 10, 12 and 24 samples at −20° C. for analysis the following day. • 6. Measure pH and record color of the solution at each time point. Results
The 1-hour samples were taken directly from the beakers. Samples for later time points were collected in stoppered vials processed in the atmosphere of the bag in order to simulate the headspace conditions then placed in water baths or refrigerator to maintain there respective temperature conditions. This was done to maintain safety in the lab. Disposable plastic glove bags require constant flow of a mixture of nitrogen and air to maintain headspace oxygen level that will result in the desired dissolved oxygen (DO) content in the sample. The pH of samples was measured at each sample points.
Strength and degradation profile was analyzed by HPLC as described above. […] Degradation was slightly higher at higher temperature condition.

[1] = Run #F, 2° C., hours 1,4,8,12,24 at r5-r9, 8 h after preparation
[2] = Run #F, 2° C., hours 1,4,8,12,24 at r5-r9, 12 h after preparation
[3] = Run #F, 2° C., hours 1,4,8,12,24 at r5-r9, 24 h after preparation
[4] = Run #G, 5° C., hours 1,4,8,12,24 at r6-r10, after 4 hours
[5] = Run #G, 5° C., hours 1,4,8,12,24 at r6-r10, after 24 hours
[6] = Run #G, 5° C., hours 1,4,8,12,24 at r16-r20, after 1 hours
[7] = Run #G, 5° C., hours 1,4,8,12,24 at r16-r20, after 4 hours
[8] = Run #G, 5° C., hours 1,4,8,12,24 at r16-r20, after 8 hours
[9] = Run #G, 5° C., hours 1,4,8,12,24 at r16-r20, after 12 hours
[10] = Run #G, 5° C., hours 1,4,8,12,24 at r16-r20, after 24 hours
[11] = Run #H, 5° C., pH 7.9, Oxygen 1.0 mg/L, hours 1,4,8,10,12,24 at r6-r11
[12] = Run #H, 5° C., pH 7.9, Oxygen 1.0 mg/L, hours 1,4,8,10,12,24 at r6-r11, 1 h
[13] = Run #H, 5° C., pH 7.9, Oxygen 1.0 mg/L, hours 1,4,8,10,12,24 at r6-r11, 4 h
[14] = Run #H, 5° C., pH 7.9, Oxygen 1.0 mg/L, hours 1,4,8,10,12,24 at r6-r11, 10 h
[15] = Run #H, 5° C., pH 7.9, Oxygen 1.0 mg/L, hours 1,4,8,10,12,24 at r6-r11, 12 h
[16] = Run #H, 5° C., pH 7.9, Oxygen 1.0 mg/L, hours 1,4,8,10,12,24 at r6-r11, 24 h
[17] = Run #H, 5° C., pH 7.9, Oxygen 1.0 mg/L, hours 1,4,8,10,12,24 at r17-r22, 1 h
[18] = Run #H, 5° C., pH 7.9, Oxygen 1.0 mg/L, hours 1,4,8,10,12,24 at r17-r22, 4 h
[19] = Run #H, 5° C., pH 7.9, Oxygen 1.0 mg/L, hours 1,4,8,10,12,24 at r17-r22, 8 h
[20] = Run #H, 5° C., pH 7.9, Oxygen 1.0 mg/L, hours 1,4,8,10,12,24 at r17-r22, 10 h
[21] = Run #H, 5° C., pH 7.9, Oxygen 1.0 mg/L, hours 1,4,8,10,12,24 at r17-r22, 12 h
[22] = Run #H, 5° C., pH 7.9, Oxygen 1.0 mg/L, hours 1,4,8,10,12,24 at r17-r22, 24 h
[23] = Run #I, 5° C., pH 7.9, Oxygen 1.0 mg/L, hours 1,4,8,10,12,24 at r6-r11, 1 h
[24] = Run #I, 5° C., pH 7.9, Oxygen 1.0 mg/L, hours 1,4,8,10,12,24 at r6-r11, 4 h
[25] = Run #I, 5° C., pH 7.9, Oxygen 1.0 mg/L, hours 1,4,8,10,12,24 at r6-r11, 8 h
[26] = Run #I, 5° C., pH 7.9, Oxygen 1.0 mg/L, hours 1,4,8,10,12,24 at r6-r11, 10 h
[27] = Run #I, 5° C., pH 7.9, Oxygen 1.0 mg/L, hours 1,4,8,10,12,24 at r6-r11, 12 h

CN(C)c1cc(NC(=O)CNC(C)(C)C)c(O)c2c1C[C@H]1C[C@H]3[C@H](N(C)C)C(O)=C(C(N)=O)C(=O)[C@@]3(O)C(O)=C1C2=O [Tigecycline]
RRT 1.45 [1]: 0.09%
RRT 1.85 MW = 597 [1]: 0.08%
Total [1]: 1.00%
RRT 0.74 Epimer [2]: 0.18%
RRT 1.45 [2]: 0.08%
Total [2]: 1.07%
RRT 0.74 Epimer [3]: 0.19%
Total [3]: 1.43%
Strength (Run #G, 5° C., Oxygen = 1.0 mg/mL, hours 1,4,8,12,24 at r6-r10, after 1 hours): 18.577 mg/mL
Strength (Run #G, 5° C., Oxygen = 1.0 mg/mL, hours 1,4,8,12,24 at r6-r10, after 4 hours): 18.694 mg/mL
Strength (Run #G, 5° C., Oxygen = 1.0 mg/mL, hours 1,4,8,12,24 at r6-r10, after 8 hours): 18.487 mg/mL
Strength (Run #G, 5° C., Oxygen = 1.0 mg/mL, hours 1,4,8,12,24 at r6-r10, after 12 hours): 18.507 mg/mL
Strength (Run #G, 5° C., Oxygen = 1.0 mg/mL, hours 1,4,8,12,24 at r6-r10, after 24 hours): 18.587 mg/mL
RRT 1.67 MW = 556 (Run #G, 5° C., Oxygen = 1.0 mg/mL, hours 1,4,8,12,24 at r16-r20, after 1 hours): 0.08%
RRT 1.67 MW = 556 (Run #G, 5° C., Oxygen = 1.0 mg/mL, hours 1,4,8,12,24 at r16-r20, after 4 hours): 0.14%
RRT 1.67 MW = 556 (Run #G, 5° C., Oxygen = 1.0 mg/mL, hours 1,4,8,12,24 at r16-r20, after 8 hours): 0.17%
RRT 1.67 MW = 556 (Run #G, 5° C., Oxygen = 1.0 mg/mL, hours 1,4,8,12,24 at r16-r20, after 12 hours): 0.20%
RRT 1.67 MW = 556 (Run #G, 5° C., Oxygen = 1.0 mg/mL, hours 1,4,8,12,24 at r16-r20, after 24 hours): 0.23%
RRT 0.74 Epimer (Run #G, 5° C., hours 1,4,8,12,24 at r6-r10, after 1 hours): 0.16%
RRT 0.58 [4]: 0.07%
RRT 0.74 Epimer [4]: 0.17%
RRT 0.74 Epimer (Run #G, 5° C., hours 1,4,8,12,24 at r6-r10, after 8 hours): 0.18%
RRT 0.74 Epimer (Run #G, 5° C., hours 1,4,8,12,24 at r6-r10, after 12 hours): 0.20%
RRT 0.58 [5]: 0.08%
RRT 0.74 Epimer [5]: 0.21%
RRT 1.45 [6]: 0.08%
RRT 1.64 Mino [6]: 0.11%
RRT 1.85 MW = 597 [6]: 0.08%
Total [6]: 0.58%
RRT 1.64 Mino [7]: 0.07%
Total [7]: 0.78%
RRT 1.45 [8]: 0.07%
RRT 1.85 MW = 597 [8]: 0.09%
Total [8]: 1.12%
RRT 1.45 [9]: 0.09%
Total [9]: 1.34%
RRT 1.85 MW = 597 [10]: 0.10%
Total [10]: 2.09%
RRT 0.58 [11]: 0.09%
RRT 0.64 9-Amino [11]: BRL (BRL means below reporting limit (meaning less than 0.05% of tigecycline peak))
RRT 0.74 Epimer [12]: 0.19%
Strength [12]: 19.457 mg/mL
RRT 0.74 Epimer [13]: 0.20%
Strength [13]: 19.441 mg/mL
Strength (Run #H, 5° C., pH 7.9, Oxygen 1.0 mg/L, hours 1,4,8,10,12,24 at r6-r11, 8 h): 19.361 mg/mL
RRT 0.74 Epimer [14]: 0.25%
Strength [14]: 19.447 mg/mL
RRT 0.74 Epimer [15]: 0.27%
Strength [15]: 20.119 mg/mL
RRT 0.74 Epimer [16]: 0.23%
Strength [16]: 19.319 mg/mL
RRT 0.78 MW = 557 (Run #H, 5° C., pH 7.9, Oxygen 1.0 mg/L, hours 1,4,8,10,12,24 at r17-r22): BRL (BRL means below reporting limit (meaning less than 0.05% of tigecycline peak))
RRT 1.45 [17]: 0.09%
RRT 1.64 Mino [17]: 0.12%
RRT 1.85 MW = 597 [17]: 0.07%
Total [17]: 0.60%
RRT 1.45 [18]: 0.07%
RRT 1.64 Mino [18]: 0.09%
RRT 1.85 MW = 597 [18]: 0.08%
Total [18]: 0.70%
RRT 1.64 Mino [19]: 0.10%
Total [19]: 0.66%
RRT 1.64 Mino [20]: 0.11%
Total [20]: 0.90%
RRT 1.85 MW = 597 [21]: 0.09%
Total [21]: 0.87%
RRT 1.45 [22]: 0.05%
RRT 1.64 Mino [22]: 0.15%
RRT 1.85 MW = 597 [22]: 0.10%
Total [22]: 1.03%
RRT 0.64 9-Amino (Run #I, 5° C., pH 7.9, Oxygen 1.0 mg/L, hours 1,4,8,10,12,24 at r6-r11): BRL (BRL means below reporting limit (meaning less than 0.05% of tigecycline peak))
RRT 0.58 [23]: 0.08%
RRT 0.74 Epimer [23]: 0.19%
Strength [23]: 19.263 mg/mL
RRT 0.58 [24]: 0.09%
RRT 0.74 Epimer [24]: 0.21%
Strength [24]: 19.361 mg/mL
RRT 0.58 [25]: 0.06%
RRT 0.74 Epimer [25]: 0.18%
Strength [25]: 19.131 mg/mL
RRT 0.74 Epimer [26]: 0.29%
Strength [26]: 19.204 mg/mL
RRT 0.58 [27]: 0.07%
RRT 0.74 Epimer [27]: 0.26%

Reference: patent US20070026080A1, “Manufacturing process for tigecycline” (Wyeth, priority 2005, published 2007)
